Non-standard residues stand in square brackets, D forms with d. Residues, ends and D or L forms follow the SMILES beside them. Cha = N[C@@H](CC1CCCCC1)C(=O)O

Assay [1] concerns the target T1, human muscarinic 1 receptor (M1R) (Homo sapiens, UniProt P11229).
T1 construct: The M1R constructs used in this assay consisted of the full-length human muscarinic 1 receptor; FLAG (N); expressed in transfected cells; membrane extracts
T1 sequence (P11229 1-460): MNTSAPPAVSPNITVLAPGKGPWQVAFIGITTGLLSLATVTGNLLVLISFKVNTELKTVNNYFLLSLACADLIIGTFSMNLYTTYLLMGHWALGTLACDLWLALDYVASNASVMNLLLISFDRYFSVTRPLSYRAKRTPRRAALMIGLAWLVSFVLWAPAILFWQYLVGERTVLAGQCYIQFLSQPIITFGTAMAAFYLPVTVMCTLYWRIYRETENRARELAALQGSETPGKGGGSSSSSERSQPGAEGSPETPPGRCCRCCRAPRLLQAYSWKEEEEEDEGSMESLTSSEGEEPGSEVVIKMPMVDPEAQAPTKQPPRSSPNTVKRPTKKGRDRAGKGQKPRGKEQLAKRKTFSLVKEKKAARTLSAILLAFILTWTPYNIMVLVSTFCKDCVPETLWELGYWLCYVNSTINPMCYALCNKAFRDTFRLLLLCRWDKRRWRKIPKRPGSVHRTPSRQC
As to the kind of experiment: Radioligand binding assay (RLA) on M1R membrane extracts. As to conditions: IC50 of agonist without mimetic divided by IC50 with mimetic; averaged value. The text has this: A radioligand displacement assay can quantify the pharmacological stabilization of the GPCR in the active conformation by comparing the affinities of an agonist for the basal versus the active GPCR conformer. In particular, stabilization of a GPCR in an active conformational state or specific binding to a GPCR in an active conformational state by a G protein peptidomimetic or a Gq/11 protein peptidomimetic as disclosed herein can be determined based on the shift in IC50 value of a ligand, in particular an agonist more particularly an orthosteric agonist, which binds to the GPCR when tested in the presence and the absence of the G protein peptidomimetic or the Gq/11 protein peptidomimetic. During the assay, the binding affinity of an orthosteric agonist for the receptor in presence and absence of the (allosteric) peptidomimetic is determined. Therefore, the GPCR, e.g. embedded in membrane extracts, is incubated with a radioligand and different concentrations of the agonist. By increasing the agonist concentration, radioligand will be displaced by the agonist. A leftward shift of the curve in the presence of the peptidomimetic is indicative of a peptidomimetic capable of stabilizing a GPCR in an active conformational state. A “shift” in IC50 value or IC50 shift is defined herein as the IC50 ratio of a ligand, in particular an agonist, more particularly an orthosteric agonist, which binds to the GPCR in the absence of a G protein peptidomimetic or a Gq/11 protein peptidomimetic relative to the presence of the G protein peptidomimetic or the Gq/11 protein peptidomimetic, or the IC50 value of a ligand, in particular an agonist, for binding to the GPCR in the absence of a G protein peptidomimetic or a Gq/11 protein peptidomimetic divided by the IC50 value of the ligand in the presence of the G protein peptidomimetic or the Gq/11 protein peptidomimetic in the same preparation, wherein said IC50 values are determined in a radioligand binding assay or radioligand displacement assay (RLA) as known to the skilled person. For example, a human muscarinic acetylcholine 1 receptor (M1R) radioligand binding assay using ^3H—N-methyl scopolamine (^3H-NMS) as the radioligand and increasing concentrations of acetylcholine chloride (agonist) as cold competitor may be used.
The membrane extracts were prepared from cells that overexpressed muscarinic acetylcholine 1 receptor (M1R), by resuspending the cell pellet in a buffer (1 ml buffer/2×1E7 cells) containing 20 mM Hepes (pH 7.4), 100 mM NaCl, Leupeptin and phenylmethylsulfonyl fluoride (PMSF). Afterwards the cells were vortexed and homogenized in ice using a small volume ULTRA-TURRAX® (6×10 sec). The cells were then centrifuged for 15 min at 16000 rcf, in a pre-cooled centrifuge (4° C.) and resuspended in the previous buffer containing 10% sucrose. Finally, the membranes were again homogenized in ice with the small volume ULTRA-TURRAX® (3×10 sec). The protein concentration in the membrane extracts was determined using a Pierce™ bicinchoninic acidv (BCA) Protein Assay Kit and the protein concentration was extrapolated from the Bovine Serum Albumine standard curve.
The M1R constructs used in this assay consisted of the full-length human muscarinic 1 receptor with a FLAG tag at the N-terminus. A buffer containing 20 mM Hepes pH 7.4, 100 mM NaCl, and 0.1% BSA was used for the ligands, membrane extracts and peptides (+1% dimethylsulfoxide (DMSO)). The competition assay was performed with [3H]—N-methyl scopolamine ([3H]-NMS) as radiolabeled antagonist, at a final concentration of 0.6 nM. A ten-fold dilution series of the agonist, acetylcholine chloride, was prepared to obtain a dose response curve. After incubation, the samples were harvested into filter plates (GF/C) and washed with ice cold washing buffer (20 mM Hepes pH 7.4) using the 96-well harvester. […]

Assay [2] addresses T2, ghrelin receptor (Homo sapiens, UniProt Q92847).
T2 construct: expressed in transfected cells; host or cells: HEK293 cells overexpressing the ghrelin receptor
As to the kind of experiment: IP-One Gq assay. Particulars: peptidomimetic at 10 μM, varying MK0677; FIG. 8. In kind it is cell-based.
Description: IP-One assays were conducted by using a homogeneous time-resolved fluorescence resonance energy transfer (TRFRET) assay (cisbio, IP-One Gq kit). The assays were performed on 384-well plates, containing 5000 cells/well. The HEK293 cells, in stimulation buffer (1×), were incubated with 5 or 10 μM of peptides (in stimulation buffer) during 1 h at 37° C. […] Finally, the d2-labeled IP1 and anti-IP1-cryptate, diluted in lysis buffer, were added to each well and incubated at room temperature. After 2 h of incubation in the dark, the plates were analyzed using the PHERAstar microplate reader.
The IP-One Gq assay detects the accumulation of inositol monophosphate (IP1), a metabolite produced following phospholipase C activation.
The assays were performed on 384-well plates containing HEK293 cells that overexpress the ghrelin receptor. First, the Gq/11 peptidomimetics were incubated during 1 h to allow penetration in the cells. […] After 45 min of incubation, the cells were lysed and d2-labeled IP1 (acceptor, 665 nm) was exogenously added to compete with the native unlabeled IP1 for binding with the anti-IP1-Cryptate (donor, 620 nm). Fluorescence was measured and the fluorescence ratio (665 nm/620 nm) was determined.

T2 sequence (Q92847 whole entry): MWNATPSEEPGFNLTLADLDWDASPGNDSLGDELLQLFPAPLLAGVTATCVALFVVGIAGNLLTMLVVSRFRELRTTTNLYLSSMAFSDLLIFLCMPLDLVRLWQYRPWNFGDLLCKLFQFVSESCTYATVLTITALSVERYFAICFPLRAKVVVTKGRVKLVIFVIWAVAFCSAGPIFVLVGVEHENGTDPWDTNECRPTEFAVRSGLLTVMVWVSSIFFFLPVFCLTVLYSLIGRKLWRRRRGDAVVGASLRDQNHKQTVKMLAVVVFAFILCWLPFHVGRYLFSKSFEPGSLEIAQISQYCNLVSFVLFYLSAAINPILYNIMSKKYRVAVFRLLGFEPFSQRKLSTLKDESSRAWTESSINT

With `CC[C@H](C)[C@H](NC(=O)[C@@H](NC(=O)[C@H](CC(=O)O)NC(=O)[C@H](CCCCN)NC(=O)[C@@H](NC(=O)[C@H](C)NC(=O)[C@H](C)NC(=O)[C@H](Cc1ccccc1)NC(=O)[C@H](CCCCN)NC(=O)[C@H](CCCCN)NC(=O)[C@H](CCCCN)NC(C)=O)C(C)C)[C@@H](C)O)C(=O)N[C@@H](CC(C)C)C(=O)N[C@@H](CCC(N)=O)C(=O)N[C@@H](CC(C)C)C(=O)N[C@@H](CC(N)=O)C(=O)N[C@@H](CC(C)C)C(=O)N[C@@H](CCCCN)C(=O)N[C@@H](CCC(=O)O)C(=O)N[C@@H](Cc1ccc(O)cc1)C(=O)N[C@@H](CC(N)=O)C(=O)N[C@@H](CC1CCCCC1)C(=O)N[C@H](C(=O)O)C(C)C` [SBL-GQ-04] (Ac-KKKFAAVKDTILQLNLKEYN[Cha]V-OH), in assay [1], the Shift is on record as 4. The “receptor activation / fluorescence ratio (665 nm/620 nm) vs absence of peptidomimetic” value in assay [2] is recorded as “Almost no difference in receptor activation”.

(Values after patent US20260242759A1, “GQ/11 Protein Peptidomimetics” (Vrije Universiteit Brussel, priority 2022, published 2026).)
